Experimental data published in publication PMC5788896 (Frontiers in Pharmacology, 2018).

What was measured:
[1] = parameters: method as in Turina et al., 2006; conditions: ref Turina et al., 2006; cited from earlier work
[2] = tested on: NCM460 cell monolayers; conditions: P-gp efflux transporter substrate; ref Marchetti et al., 2016; cited from earlier work
[3] = Stability of geraniol in phosphate buffered saline; format: physicochemical; conditions: 37°C, for at least 8 h, data not shown
Text: During the experiment drug solutions were shaken continuously and gently in an oscillating water-bath.

[4] = Hematochemical analysis and lipid serum profile after 28-day treatment; format: in vivo, C57BL/6 mice
Method: (§1) At the end of treatment, mice were killed.
For each animal, blood samples were collected in both heparinized and non-heparinized tubes. Plasma from heparinized samples was obtained after tabletop centrifugation at 2,000 rpm, while blood in non-heparinized tubes was centrifuged at 1,500 rpm for 10 min after complete coagulation, to obtain serum. Biochemical and hematological analyses were assessed by the Department of Veterinary Medical Science, University of Bologna.

[5] = tested on: Oxidized glutathione reductase (GSSG-red); experiment: Oxidized glutathione reductase activity in liver after 28-day treatment; format: in vivo, C57BL/6 mice; conditions: mice liver
Method: At the end of treatment, mice were killed. […] Oxidized glutathione reductase activity (GSSG-red). […] The generation of NADP^+ from NADPH during the reduction of GSSG was recorded at 340 nm for 5 min at 37°C. GSSG-red activity was calculated using the extinction coefficient of 6.22 per mM x cm, and expressed as mol of NADPH consumed/min per mg protein ([Bonamassa et al., 2016]).

[6] = tested on: Superoxide dismutase (SOD); experiment: Superoxide dismutase activity in liver after 28-day treatment; format: in vivo, C57BL/6 mice; conditions: mice liver
Method: At the end of treatment, mice were killed. […] Superoxide dismutase activity (SOD): Superoxide dismutase activity was determined according to Misra and Fridovich’s assay ([Misra and Fridovich, 1972]). Briefly, the activity was assayed spectophotometrically at […] by monitoring the generation of adenochrome, one of the main products of epinephrine autoxidation at pH 10.2. The dejection of autoxidation was used to calculate SOD activity using the extinction coefficient of 4.02 per mM × cm, and expressed as mol of epinephrine oxidized/min per mg protein, derived by subtracting each test curve from the epinephrine autoxidation standard curve ([Bonamassa et al., 2016]).

[7] = tested on: Catalase (CAT); experiment: Catalase activity in liver after 28-day treatment; format: in vivo, C57BL/6 mice; conditions: mice liver
Method: At the end of treatment, mice were killed. […] Catalase (CAT) activity. The reaction was started in a quartz cuvette containing 50 mM potassium phosphate buffer and cytosol sample by adding 30 mM H2O2.

[8] = Intravenous infusion pharmacokinetics, whole blood by HPLC; format: in vivo, Sprague-Dawley rats
Method: The samples were extracted and analyzed as described above, with the only difference that the samples withdrawn within 20 min after infusion were diluted 1:10 using the H2O:CH3CN mixture (50:50 v/v) before analysis. Four rats ware employed for intravenous infusions of geraniol. […] The calculations were performed using the computer program GraphPad Prism. […] At the end of the oral administration and at fixed time points, blood samples (100 μL) were collected and CSF samples (50 μL) were withdrawn using the cysternal puncture method described by [van den Berg et al. (2002)], which requires a single needle stick and allows the collection of serial (40–50 μL) CSF samples that are virtually blood-free ([Dalpiaz et al., 2014]). A total volume of approximately 150 μL of CSF was collected during the experimental session. […] In particular, blood withdrawals for all programmed time points were repeated four times with a corresponding number of rats; CSF withdrawals for all programmed time points were repeated at least four times with a number of rats allowing no more than three CSF withdrawals from each of them. […] All the calculations were performed using the computer program Graph Pad Prism.

[9] = tested on: Glutathione S-transferase (GST); experiment: Glutathione S-transferase activity in liver after 28-day treatment; format: in vivo, C57BL/6 mice; conditions: mice liver
Method: as §1
The incubation mixture for measuring overall GST activity contained 1 mM glutathione + 1 mM 1-chloro-2,4-dinitrobenzene (CDNB) in methanol + 0.025 mL of sample in a final volume of 2.5 mL 0.1 M phosphate Na^+/K^+ buffer (pH 6.5). The product of the reaction of the thiol group of glutathione with the electrophilic group of CDNB was read at 340 nm (ε = 9.6 mM^-1 cm^-1) ([Vivarelli et al., 2016a]).

[10] = tested on: UDP glucuronosyl-transferase (UDPGT); experiment: UDP-glucuronosyl transferase activity in liver after 28-day treatment; format: in vivo, C57BL/6 mice; conditions: mice liver
Method: At the end of treatment, mice were killed. […] Experiments were performed in the presence or absence of Triton X-100 (0.2%) as a detergent, in order to improve the assay sensitivity ([Canistro et al., 2008]).

[11] = tested on: NAD(P)H: quinone reductase (NQO1); experiment: NAD(P)H:quinone reductase activity in liver after 28-day treatment; format: in vivo, C57BL/6 mice; conditions: mice liver, geraniol 120 mg/kg by gavage for 28 days
Text: At the end of treatment, mice were killed. […] NAD(P)H:quinone reductase (NQO1) activity.

[12] = tested on: NCM460 cell monolayers; experiment: Permeation studies across NCM460 cell monolayers (Millicell inserts, HPLC); format: in vitro ADME, human; conditions: A → B higher than B → A, P < 0.001
Method: Differentiation to NCM460 cell monolayers was performed essentially according to the method reported by [Ferretti et al. (2015)]. Briefly, after two passages, confluent NCM460 cells were seeded at a density of 10^5 cells/mL in a 1:1 ratio of fresh and spent culture medium in 12-well Millicell inserts (Millipore, Milan, Italy) consisting of 1.0 μm pore size polyethylene terephthalate (PET) filter membranes, whose surface was 1.12 cm^2. Filters were presoaked for 24 h with fresh culture medium, and then the upper compartment (apical, A) received 400 μL of the diluted cells, whereas the lower compartment (basolateral, B) received 2 mL of the medium in the absence of cells. […] The integrity of the cell monolayers was monitored by measuring the transepithelial electrical resistance (TEER) by means of a voltmeter (Millicell-ERS; Millipore, Milan, Italy). The measured resistance value was multiplied by the area of the filter to obtain an absolute value of TEER, expressed as Ω⋅cm^2. […] The homogeneity and integrity of the cell monolayer were also monitored by phase contrast microscopy. […]
Permeation experiments were performed in triplicate in both the apical-to-basolateral (A → B) and basolateral-to-apical (B → A) directions. […] TEER values were monitored before and after each experiment. […]
The permeabilities were determined for the filters alone (Pf), and for the filters covered with cells (Pt). […]

[13] = parameters: method as in Turina et al., 2006; conditions: ref Turina et al., 2006; cited from earlier work; remark: listed apart in the source
[14] = intravenous administration of 1 mg/kg; ref Gavini et al., 2011; cited from earlier work
[15] = mice blood, geraniol 120 mg/kg by gavage for 28 days
[16] = mice serum, geraniol 120 mg/kg by gavage for 28 days
[17] = geraniol 120 mg/kg by gavage for 28 days
[18] = 120 mg/kg 28 days, versus controls

## CC12CCC(CC1=O)C2(C)C (stereo not shown) [camphor]
[1]
  membrane/water partition coefficient (Pm/w): 3.99

## CCN(CC)C(=O)Nc1ccc(OCC(O)CNC(C)(C)C)c(C(C)=O)c1 (stereo not shown) [celiprolol]
[2]
  direction of transport across NCM460 monolayers: rate from basolateral to apical compartments being significantly higher than its rate in the opposite direction

## CC12CCC(CC1)C(C)(C)O2 [cineole]
[1]
  membrane/water partition coefficient (Pm/w): 3.37

## CC(C)=CCC/C(C)=C/CO [geraniol, 3,7-dimethylocta-trans-2,6-dien-1-ol]
[3]
  stability in PBS: highly stable
[4]; [15]
  ALT: 34 ± 5 U/l
  AST: 149 ± 24 U/l
[4]; [16]
  Cholesterol: 94 ± 7 mg/dL
  HDL cholesterol: 66 ± 4 mg/dL
[4]; mice, 120 mg/kg of geraniol for 4 weeks
  liver toxicity: no signs of liver toxicity
[5]; 120 mg/kg 28 days, P < 0.01
  oxidized glutathione reductase (GSSG-red) induction with respect to controls: up to 56%
[5]; [17]
  Oxidized glutathione reductase (GSSG-red), Mean: 118.31 µmol/mg/min
[1]
  membrane/water partition coefficient (Pm/w): 4.38
[6]; [18]
  effect on Superoxide dismutase (SOD) activity: not affected
[6]; [17]
  Superoxide dismutase (SOD), Mean: 13.65 nmol/mg/min
[7]; 120 mg/kg 28 days, P < 0.01
  catalase (CAT) induction with respect to controls: up to 29%
[7]; [17]
  Catalase (CAT), Mean: 2.55 µmol/mg/min
[8]; iv infusion 12.5 mg (50 mg/kg), end of infusion
  drug concentration in the rat bloodstream after intravenous infusion: 298 ± 19 µg/mL
[8]; male, Sprague-Dawley, rat, iv 50 mg/kg, blood, within 3 h, read-out: AUC, intravenous administration (converted)
  AUC: 126 µg·h/mL
[8]; male, Sprague-Dawley, rat, iv infusion 12.5 mg (50 mg/kg), apparent first order kinetics, read-out: half-life in the bloodstream
  half-life: 12.5 ± 1.5 min
[9]; [18]
  effect on Phase II enzymes (GST): not affected
[9]; [17]
  Glutathione S-transferase (GST), Mean: 2.60 µmol/mg/min
[10]; [18]
  effect on Phase II enzymes (UDPGT): not affected
[10]; [17]
  UDP glucuronosyl-transferase (UDPGT), Mean: 3.89 nmol/mg/min
[11]
  NAD(P)H: quinone reductase (NQO1), Mean: 12.43 nmol/mg/min
[12]
  permeation rate apical to basolateral versus opposite direction: roughly sixfold
[13]
  n-octanol/water partition coefficient: 2.65

## CC1CCC(C(C)C)C(O)C1 (stereo not shown) [menthol]
[1]
  membrane/water partition coefficient (Pm/w): 2.44

## CCCC(=O)O[C@H]1[C@H](C)O[C@@H](O[C@H]2[C@H](N(C)C)[C@@H](O)[C@H](O[C@H]3[C@@H](CC=O)C[C@@H](C)[C@@H](O)/C=C/C=C/C[C@@H](C)OC(=O)C[C@@H](O)[C@@H]3OC)O[C@@H]2C)C[C@@]1(C)OC(=O)CC [rokitamycin]
[14]
  concentration values in whole blood: up to 7 μg/mL
